Experimental findings from ChEMBL document CHEMBL1201862, “PubChem BioAssay data set” (2004) are described below.

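The compound was tested at five concentrations on cells cultured in 96-well plates, with a 48-hour exposure period. GI50 marks 50% less growth.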 The source made the active and inactive calls. No stated cut-off is given here; in the data, active = GI50 up to about 1.1 µM and inactive = higher.

What all share (assay): NCI tumour cell line growth inhibition, 48 h
Assay [1] has as its system OVCAR-8.
Assay [2] deals with UACC-62.
The test system of assay [3] is NCI-H226.
Assay [4] has as its system KM12.
Assay [5] has as its system SF-268.
In assay [6] the test system is HOP-62.
Assay [7] relates to SK-MEL-2.
The test system of assay [8] is MCF7.
Assay [9] has as its system NCI-H460.
Assay [10] concerns DU-145.
Assay [11] relates to 786-0.
Assay [12] concerns NCI-H23.
Assay [13] has as its system A498.
The subject of assay [14] is MDA-MB-231.
The subject of assay [15] is LOX IMVI.
Assay [16] concerns U-251.
Assay [17] has as its system MDA-MB-435.
Assay [18] relates to ACHN.
Assay [19] deals with Hs-578T.
Assay [20] deals with COLO 205.

`O=C1c2ccccc2C(=O)N1CCSCC(CO)SCCN1C(=O)c2ccccc2C1=O` (stereo not given): the GI50 is > 100 µM (inactive) in assay [1]; 90.2 µM (inactive) in assay [2]; > 100 µM (inactive) in assay [3]; > 100 µM (inactive) in assay [4]; > 100 µM (inactive) in assay [5]; > 100 µM (inactive) in [6]. For the same compound, the GI50 in assay [7], in [8], in [9], in [10], in assay [11] and in [12] was > 100 µM (inactive) throughout. Also, the GI50 in assay [13], in [14], in assay [15], in assay [16], in assay [17] and in [18] was > 100 µM (inactive) in each case. In addition, the GI50 in assay [19] and in assay [20] was > 100 µM (inactive) each time.
Regarding `O=C(NCCCNCCN1C(=O)c2cccc3cc([N+](=O)[O-])cc(c23)C1=O)c1cc(-c2ccccc2)nc2ccccc12`, the GI50 in assay [1] is 0.933 µM (active); in assay [2], 5.12 µM (inactive); in assay [3], 7.26 µM (inactive); in assay [4], 4.4 µM (inactive); in assay [5], 1.39 µM (inactive); in assay [6] it was 6.49 µM (inactive). Also, the GI50 in assay [7] is 3.31 µM (inactive); in [8], 2.17 µM (inactive); in assay [9], 1.55 µM (inactive); in assay [10] it was 5.21 µM (inactive); in [11], 1.45 µM (inactive); in assay [12], 3.02 µM (inactive). Moreover, the GI50 in assay [13] was 4.2 µM (inactive); in assay [14] it was 3.01 µM (inactive); in assay [15] it was 1.04 µM (active); in assay [16] it was 2.09 µM (inactive); in assay [17], 1.46 µM (inactive); in [18] it was 0.991 µM (active). Besides, the values for the GI50 in assay [19] and in [20] were 3.41 µM (inactive) and 1.45 µM (inactive), respectively.
For the compound `Cc1ccc(F)cc1NC(=O)O/N=C(\Cl)C(C)C`, the GI50 in assay [1] is 17.5 µM (inactive); in assay [2] it was 13.2 µM (inactive); in assay [3], 14 µM (inactive); in assay [4] it was 16.9 µM (inactive); in assay [5], 24.5 µM (inactive); in assay [6], 19.5 µM (inactive). Besides, the GI50 is 19.1 µM (inactive) in assay [7]; 6.4 µM (inactive) in assay [8]; 29.2 µM (inactive) in assay [9]; 18.2 µM (inactive) in assay [10]; 5.69 µM (inactive) in [11]; 17.9 µM (inactive) in assay [12]. Further, the GI50 in [13] was 20 µM (inactive); in [14], 14.1 µM (inactive); in assay [15], 1.98 µM (inactive); in [16], 23.3 µM (inactive); in assay [17], 13 µM (inactive); in [18] it was 2.14 µM (inactive). In addition, the values for the GI50 in assay [19] and in assay [20] were 22.5 µM (inactive) and 1.9 µM (inactive), respectively.
For the compound `CN(C)Cc1cc(/N=N/c2c(Cl)cccc2Cl)ccc1O`, the GI50 was > 100 µM (inactive) in assay [1]; 62.2 µM (inactive) in [2]; 35.2 µM (inactive) in assay [3]; > 100 µM (inactive) in assay [4]; > 100 µM (inactive) in assay [5]; > 100 µM (inactive) in assay [6]. For the same compound, the GI50 in assay [7] was > 100 µM (inactive); in assay [8], > 100 µM (inactive); in [9] it was 75 µM (inactive); in assay [10], 8.49 µM (inactive); in [11] it was 64.1 µM (inactive); in assay [12], 63.4 µM (inactive). The GI50 in assay [13] is 55.5 µM (inactive); in assay [14] it was > 100 µM (inactive); in assay [15] it was 74.3 µM (inactive); in [16], 85.7 µM (inactive); in [17], 88.9 µM (inactive); in [18], 56.4 µM (inactive). In addition, the GI50 was 40.9 µM (inactive) in [19] and > 100 µM (inactive) in [20].
